In PMC4351682, “Formononetin inhibits enterovirus 71 replication by regulating COX- 2/PGE2 expression” (Virology Journal, 2015):

Assays:
JNK = assay: Western blot of EV71-induced phosphorylation of JNK in SK-N-SH cells; format: cell-based; conditions: pretreatment 24 h, formononetin 14.91 μmol/L, pirodavir 1.08 μmol/L, EV71 30 min
Experimental: Figure 3 Formononetin but not pirodavir reduces the phosphorylation of ERK (A), p38 (B), and JNK (C) induced by EV71 infection. SK-N-SH cells (9 × 10^5 cells/well) were plated into 6-well culture plates. The cells were then pretreated with formononetin (14.91 μmol/L) and pirodavir (1.08 μmol/L), respectively. After 24 h, the cells were mock-infected or infected with 4.8 × 10^5 pfu/well of EV71 (SHZH98) for 15 min (A), 10 min (B), and 30 min (C), respectively. The cells were harvested and ERK (A) p-ERK (A), p38 (B), p-p38 (B), JNK (C), and p-JNK (C) were detected by western blot.
Cells were lysed in the M-PER mammalian protein extraction reagent (Thermo, Rockford, IL) containing halt protease inhibitor single-use cocktail (Thermo). The protein concentration was determined by the BCA reagents (Thermo). About 10 μg proteins were denatured and applied to sodium dodecyl sulfate-polyacrylamide gel electrophoresis (SDS-PAGE). The electrophoresis products were transferred to a polyvinyl idenefluoride (PVDF) film and PVDF membranes were then incubated at room temperature with specific primary antibody. After a standard washing, membranes were incubated with horse radish peroxidase (HRP)-labeled secondary antibody. The assay developed using a chemiluminescent substrate. […]

EV71 VP1 RNA = assay: One-step qRT-PCR of EV71 VP1 RNA in SK-N-SH cells; format: cell-based, enterovirus 71; conditions: EV71 SHZH98 480 pfu/well, 24 h treatment
From the text: Figure 2 The antiviral effect of formononetin and pirodavir against EV71 in SK-N-SH cells. (A) Formononetin and pirodavir reduced the expression of EV71 VP1 protein in SK-N-SH cells by western blot assay. (B) Formononetin and pirodavir reduced the expression of EV71 VP1 protein in SK-N-SH cells by immunofluorescence assay. Cells were examined using a fluorescence microscopy (×100). (C) Formononetin and pirodavir reduced the expression of EV71 VP1 RNA by one-step qRT-PCR assay. *P < 0.001 ^# P < 0.05.
SK-N-SH cells (9 × 10^5cells/well) were plated into 6-well culture plates for incubation of 16 h. The medium was removed and cells were infected with EV71 (SHZH98) of 480 pfu/well. After 2 h, various concentrations of formononetin were supplemented for incubation of another 24 h. The total RNA of the infected cells was extracted using the RNeasy Mini kit (QIAGEN) according to the manufacturer’s instructions. The one-step qRT-PCR was performed with SuperScript III Platinum SYBR Green One-step RT PCR Kit (Invitrogen) using the ABI 7500 Fast Real-Time PCR system (Applied Biosystems). The mRNA expression of EV71 VP1 was detected with sense primer 5’-[…]-3’ and antisense primer 5’-[…]-3’ targeting a conserved region of the VP1 gene. The β-actin mRNA was detected using sense primers 5’-TGACGGGGT CACCCACA CTGTGCCCATCTA-3’ and antisense primer 5’-CTAGAAGCATTTG CGGTGGACG ATG-3’.

CVB3 (strain Nancy) = assay: CPE inhibition assay for anti-CVBs, CVB3 in Vero cells; format: cell-based, coxsackievirus B3; conditions: Enterovirus B, CVB3, 100 TCID50, Vero cells
Experimental: (§1) The anti-virus activity of formononetin on CVBs was also assayed by CPE method. Briefly, cells (3 × 10^4 cells/well) were plated into 96-well culture plates for incubation of 24 h. The medium was removed and cells were infected with 100 TCID50 of CVB2, CVB6 or CVB3. Then, various concentrations of formononetin were supplemented for incubation of another 48 h. The IC50 was determined by Reed and Muench method. The SI was calculated as the ratio of TC50/IC50 [19].

EV71 SHZH98 strain = assay: CPE inhibition assay for anti-EV71 in SK-N-SH cells; format: cell-based, enterovirus 71; conditions: Enterovirus A, 48 h
Experimental: The anti-EV71 activity of formononetin was assayed by CPE inhibition method. Briefly, cells (3 × 10^4 cells/well) were plated into 96-well culture plates for incubation of 24 h. The medium was then removed and cells were infected with EV71 of 80 pfu/well. Then, various concentrations of formononetin were supplemented for incubation of another 48 h. […] The selectivity index (SI) was calculated as the ratio of TC50/IC50 [19].

CVB2 (strain Ohio-1) = assay: CPE inhibition assay for anti-CVBs, CVB2 in Vero cells; format: cell-based, coxsackievirus B2; conditions: Enterovirus B, CVB2, 100 TCID50, Vero cells
Experimental: as §1

PGE2 = PGE2 release assay (EIA) in EV71-infected SK-N-SH cells; format: cell-based; conditions: pretreatment 24 h, formononetin 14.91 μmol/L, pirodavir 1.08 μmol/L, supernatant at 24 h p.i.
Experimental: Figure 4 Formononetin could inhibit EV71-induced COX-2 expression and PGE 2 production. (A) Formononetin but not pirodavir can reduce the expression of COX-2 induced by EV71 infection. SK-N-SH cells were mock-infected or infected with 480 pfu/well of EV71 (SHZH98) for 2 h. The cells were then treated with formononetin (14.91 μmol/L) and pirodavir (1.08 μmol/L), respectively, for 24 h. The cells were harvested and EV71-VP1 and COX-2 were examined by western blot. (B) Formononetin but not pirodavir can reduce the release of PGE2 stimulated by EV71 infection. SK-N-SH cells were pretreated with formononetin (14.91 μmol/L) or pirodavir (1.08 μmol/L) for 24 h. The cells were infected with 4.8 × 10^5 pfu/well of EV71 (SHZH98). At 24 h p.i., the culture supernatants were harvested for PGE2 release assay. For the detection of PGE2 release, SK–N–SH cells (3 × 10^5 cells/well) were seeded into 24-well culture plates and were incubated for 16 h. And then the cells were serum-deprived for 24 h and incubated with EV71 for the indicated time intervals. When drugs were used, they were added 24 h prior to the application of EV71. After treatment, the supernatants were harvested. The supernatant from each sample was assayed using a PGE2 EIA kit (AMEKO) following the manufacturer’s instruction. […] The absorbance of each well was measured at 450 nm.

Structure (SMILES)	EV71-stimulated phosphorylation of JNK (JNK)	Levels of EV71 RNA (RT-qPCR) (EV71 VP1 RNA)	IC50 (CVB3 (strain Nancy))	IC50 (EV71 SHZH98 strain)	IC50 (CVB2 (strain Ohio-1))	EV71-stimulated PGE2 release (PGE2)
COc1ccc(-c2coc3cc(O)ccc3c2=O)cc1 [Formononetin]	significantly attenuated	dose-dependently decreased	2.57 ± 0.87 µM	3.98 ± 0.8 µM	9.56 ± 2.23 µM	attenuated
CCOC(=O)c1ccc(OCCC2CCN(c3ccc(C)nn3)CC2)cc1 [Pirodavir, reference compound]	not	decrease	–	0.23 ± 0.04 µM	–	not
